Key:
[1] = tested on: phosphorylated ATM and H2AX; assay: Flow cytometry of phosphorylated ATM and H2AX (DNA double strand breaks); type: cell-based; details: 1 μCi/mL
Procedure: To accomplish this, γH2AX and PARP-1 were measured after being treated NLF cells for 1, 4, or 24 hours at doses of 0.1, or 1 μCi/mL. Data was analyzed by quantifying small regions of interest in the nucleus of cells and by nuclear co-localization. […] In flow cytometry experiments, DNA damage was measured by quantifying phosphorylated ATM and H2AX. Lastly, cell cycle analysis was evaluated using propidium iodide staining in control vs. [^211At]-Compound 1 treated cells.

[2] = tested on: IMR-05 neuroblastoma xenograft; assay: In vivo biodistribution in IMR-05 neuroblastoma xenograft model; design: species or system nude SHC mice; details: 5 μCi intravenously; for tumor versus normal tissue distribution of activity: 2 hrs
Procedure: To evaluate the in vivo biodistribution of [211A]-Compound 1, an IMR-05 neuroblastoma xenograft model in nude SHC mice was utilized. Xenografts were generated by the subcutaneous injection of 5-10 million IMR-05 neuroblastoma cells. Tumors were then allowed to engraft for 3-4 weeks when they reached 200-300 mm^3. Animals were then intravenously injected with 5 μCi of [211At]-Compound 1 and tissues were harvested at time points of […], 1 and 2 hrs. Samples were then assayed for radioactivity on a gamma counter and data was normalized to percent injected dose by divining the amount of radioactivity in the tissue by the total amount injected. […] Tissue was then flash frozen and 20 micron thick sections were produced using a cryotome. Sections were then exposed to phosphor films and films were read on a digital phosphorimager.

neuroblastoma cell lines = assay: Cell viability dose response curves in neuroblastoma cell lines; type: cell-based; details: in vitro, FIG. 2A
Procedure: Two sets of cell viability assays were performed to characterize [^211At]-Compound 1 in neuroblastoma, ovarian, and breast cancer cells. […] The first assay performed was a screen of 25 cell lines at a single concentration of 5 μCi/mL. […] Following treatment cell viability was assessed using a commercially available kit that measures ATP and data was normalized to healthy controls to produce % surviving fraction. […] Cells were treated for 72 hrs followed by evaluation of cell viability. […] Effective concentrations to reduce 50% growth compared to healthy controls were calculated using standard curve fitting software.

## O=C1NCCn2c(-c3ccc([211At])cc3)nc3cccc1c32 [[^211At]-Compound 1]
[1]
  increase in phosphorylation of ATM and H2AX (DNA double strand breaks) compared to control: 98%
[2]
  significant deastatination (accumulation of activity in lung, thyroid (neck), or stomach): not observed
  tumor versus normal tissue distribution of activity: concentration of activity in the tumor
[2]; listed as 211At-Compound 1
  tumor versus normal tissue distribution of activity: higher tumor to tissue ratios in the majority of normal organs
Neuroblastoma cell lines
  specificity of cytotoxicity: PARP-1 specific

Source: patent US11161865B2, “Radiolabeled and fluorescent PARP inhibitors for imaging and radiotherapy” (THE TRUSTEES OF THE UNIVERSITY OF PENNSYLVANIA, priority 2017, dated 2021)
